Molecules are shown by their SMILES.

The experiment has as its system HL-1 cells. Conditions: 100 nM nifedipine, control without drug 0.85±0.17 mV.

Protocol: The surface of the sensing platform 10 was coated with a gelatin solution to ensure cell adhesion, and no additional functionalization agents were used. […] To further improve the adhesion of the needles 12 to the cell membrane, mechanoporation was conducted by centrifuging at 500 rpm for one minute. Electroporation was followed using a series of biphasic square pulses to facilitate electrical access to the intracellular region. […] In order to showcase the live imaging capabilities through the optical transparency of the sensing platform 10, concurrent calcium ion (Ca^2+) flux imaging was simultaneously performed using an inverted microscope—a standard tool that is compatible only with transparent substrates. For Ca^2+ flux imaging, Fluo-8, a fluorescent calcium indicator, was loaded into the cells for live imaging, and the alteration in fluorescent intensity (AF) was measured and compared with the resting intensity (F0).
To evaluate the signal quality of the sensing platform 10, a comparative analysis of signal amplitude was conducted in comparison to a control group including the needles on a Si wafer. The measurements were limited to the cells that had been beating at approximately 1 Hz for at least one day, as the recorded amplitude and beating interval can vary with cell culture age.

`COC(=O)C1=C(C)NC(C)=C(C(=O)OC)C1c1ccccc1[N+](=O)[O-]` [nifedipine]: the “peak amplitude of action potential” value came to 0.55±0.12 mV.

The record behind these values is patent US20250176877A1, “SENSING PLATFORMS WITH NEEDLES AND METHODS OF FABRICATION AND USE” (Purdue Research Foundation, priority 2023, published 2025).
